{
  "source": "patent US20020198208A1",
  "about": "“MEDICINAL PREPARATION AND PROCESS FOR MANUFACTURING THEREOF” (priority 2000, published 2002)",
  "key": {"[1]": {"conditions": "cited from earlier work"}, "[2]": {"assay": "Clinical course of Patient I. (prostatic adenoma)", "assay_type": "in vivo, human", "description": "Patient one.\nWas hospitalized with complaints of difficult urination and urges to urinate.\nDiagnosis: stage 1I prostatic adenoma.\nTwo courses of therapy with […] sodium salt dihydrate were performed by injections for 20 and 15 injections, respectively, with a 30-day interval between the injections. Doses of the preparation were from 100 to 500 mg in 1-5 ml of distilled water correspondingly."}, "[3]": {"conditions": "prior-art preparations, powder; cited from earlier work"}, "macrophages [4]": {"system": "macrophages", "conditions": "cited from earlier work"}, "[5]": {"conditions": "Patient G.", "description": "Patient two.\nWas hospitalized with diagnosis of erysipelas of the left forearm, edema, and exacerbation of psoriasis (temperature at hospitalization was 39.9° C.).\nTameril was injected daily in a single dose of 200 mg in 2 ml water."}, "[6]": {"conditions": "Patient S., after therapy (300 mg injection 5 days, then 100 mg perorally 2 times a day)"}, "[7]": {"conditions": "Patient S., after therapy (300 mg injection 5 days, then 100 mg perorally 2 times a day)", "remark": "listed apart in the source"}, "[8]": {"conditions": "Patient S."}, "macrophages [9]": {"system": "macrophages", "conditions": "patients with impaired cellular immunity"}, "macrophages [10]": {"system": "macrophages", "conditions": "inflammatory diseases"}, "[11]": {"conditions": "doses 20-1500 mg"}, "[12]": {"conditions": "erysipelas and psoriasis, after therapy (200 mg injection daily, then 100 mg for 5 days)"}},
  "note": "Where two headings read alike, the source gives them in different places.",
  "data": [
    {"smiles": "Nc1cccc2c(=O)[nH][nH]c(=O)c12", "note": "[luminol, 5-amino-2,3-dihydrophthalazine-1,4-dione]", "values": [
      {"measurement": "medical effectiveness", "setting": "[1]; in vivo", "value": "medically ineffective"}
    ]},
    {"smiles": "Nn1[nH]c(=O)c2ccccc2c1=O.O.O.[Na]", "note": "[2-amino, 2-amino-1,2,3,4-tetrahydrophthalazine-1,4-dione sodium salt dihydrate]", "values": [
      {"measurement": "size of adenoma", "setting": "[2]; after the first course of 20 injections", "value": "decreased"},
      {"measurement": "size of adenoma", "setting": "[2]; after the second course of 15 injections", "value": "remained without further positive dynamic"},
      {"measurement": "solubility in water", "setting": "[3]", "value": "easily soluble in water"},
      {"measurement": "side effects and allergic reactions", "setting": "[1]; in vivo", "value": "does not cause side effects and allergic reactions"},
      {"measurement": "effect of longterm treatment", "setting": "[1]; patients with chronic and other diseases", "value": "causes tolerance and decreases the efficiency of therapy"},
      {"measurement": "effect on macrophages", "setting": "macrophages [4]; inflammatory processes", "value": "inactivates macrophages for several hours"},
      {"measurement": "effect on macrophages", "setting": "macrophages [4]; patients with impaired cellular immunity, e.g. malignant neoplasms", "value": "activates macrophages, interleukins and other acute-phase proteins"}
    ]},
    {"smiles": "Nc1cccc2c(=O)[nH][nH]c(=O)c12.[Na]", "note": "[Tamerit, 5-amino-2,3-dihydrophthalazine-1,4-dione sodium salt]", "values": [
      {"measurement": "state of the patient (urination)", "setting": "[2]; 10 daily injections of 200 mg after the 2-amino courses", "value": "urination was normalized"},
      {"measurement": "time to disappearance of edema and hyperemia of the left forelimb", "setting": "[5]; 200 mg injected daily", "value": 4, "unit": "days"},
      {"measurement": "state of the patient", "setting": "[5]; after 200 mg daily then 100 mg injections for 5 days", "value": "satisfactory state"},
      {"measurement": "B-lymphocytes", "setting": "[5]; [12]", "value": 25.0, "unit": "%"},
      {"measurement": "ESR", "setting": "[5]; [12]", "value": 16.0, "unit": "mm/h"},
      {"measurement": "Eosinophils", "setting": "[5]; [12]", "value": 4.0, "unit": "%"},
      {"measurement": "Erythrocytes", "setting": "[5]; [12]", "value": "6.9e+12", "unit": "L⁻¹"},
      {"measurement": "Hemoglobin", "setting": "[5]; [12]", "value": 148, "unit": "g/L"},
      {"measurement": "Immunoglobulin A", "setting": "[5]; [12]", "value": 2.47, "unit": "g/L"},
      {"measurement": "Immunoglobulin G", "setting": "[5]; [12]", "value": 13.7, "unit": "g/L"},
      {"measurement": "Immunoglobulin M", "setting": "[5]; [12]", "value": 2.31, "unit": "g/L"},
      {"measurement": "Latex phagocytosis", "setting": "[5]; [12]", "value": 83.4, "unit": "%"},
      {"measurement": "Leukocytes", "setting": "[5]; [12]", "value": "6.2e+09", "unit": "L⁻¹"},
      {"measurement": "Lymphocytes", "setting": "[5]; [12]", "value": 26.3, "unit": "%"},
      {"measurement": "Monocytes", "setting": "[5]; [12]", "value": 2.0, "unit": "%"},
      {"measurement": "Neutrophils: Segmented", "setting": "[5]; [12]", "value": 65.5, "unit": "%"},
      {"measurement": "Neutrophils: Stab", "setting": "[5]; [12]", "value": 5.7, "unit": "%"},
      {"measurement": "T-helpers", "setting": "[5]; [12]", "value": 31.2, "unit": "%"},
      {"measurement": "T-lymphocytes", "setting": "[5]; [12]", "value": 60.3, "unit": "%"},
      {"measurement": "T-suppressors", "setting": "[5]; [12]", "value": 20.1, "unit": "%"},
      {"measurement": "TNF", "setting": "[5]; [12]", "value": 24.4},
      {"measurement": "ESR", "setting": "[6]", "value": 13.0, "unit": "mm/h"},
      {"measurement": "Eosinophils", "setting": "[6]", "value": 3.0, "unit": "%"},
      {"measurement": "Erythrocytes", "setting": "[6]", "value": "5e+12", "unit": "L⁻¹"},
      {"measurement": "Hemoglobin", "setting": "[6]", "value": 147, "unit": "g/L"},
      {"measurement": "Leukocytes", "setting": "[6]", "value": "5.5e+09", "unit": "L⁻¹"},
      {"measurement": "Lymphocytes", "setting": "[6]", "value": 23.0, "unit": "%"},
      {"measurement": "Monocytes", "setting": "[6]", "value": 6.0, "unit": "%"},
      {"measurement": "Neutrophils: Segmented", "setting": "[6]", "value": 74.0, "unit": "%"},
      {"measurement": "Neutrophils: Stab", "setting": "[6]", "value": 6.0, "unit": "%"},
      {"measurement": "B-lymphocytes", "setting": "[7]", "value": 24.5, "unit": "%"},
      {"measurement": "Immunoglobulin A", "setting": "[7]", "value": 2.20, "unit": "g/L"},
      {"measurement": "Immunoglobulin G", "setting": "[7]", "value": 12.4, "unit": "g/L"},
      {"measurement": "Immunoglobulin M", "setting": "[7]", "value": 2.21, "unit": "g/L"},
      {"measurement": "Latex phagocytosis", "setting": "[7]", "value": 76.2, "unit": "%"},
      {"measurement": "T-helpers", "setting": "[7]", "value": 29.5, "unit": "%"},
      {"measurement": "T-lymphocytes", "setting": "[7]", "value": 67.0, "unit": "%"},
      {"measurement": "T-suppressors", "setting": "[7]", "value": 23.5, "unit": "%"},
      {"measurement": "TNF", "setting": "[7]", "value": 22.5},
      {"measurement": "state of the patient", "setting": "[8]; 10 days after beginning of the therapy", "value": "satisfactory state"},
      {"measurement": "state of the patient (cough, temperature)", "setting": "[8]; three days after beginning of the therapy", "value": "cough disappeared, and temperature returned to normal"},
      {"measurement": "effect on T-lymphocytes", "setting": "macrophages [9]", "value": "initiates specific reactions of T-lymphocytes"},
      {"measurement": "effect on macrophages", "setting": "macrophages [9]; e.g. malignant neoplasms, evident by release of TNF, interleukins, other acute-phase proteins", "value": "causes activation of macrophages"},
      {"measurement": "contents of TNF and acute-phase proteins", "setting": "macrophages [10]", "value": "decreasing the contents of TNF and acute-phase proteins"},
      {"measurement": "function of neutrophilic granulocytes", "setting": "macrophages [10]", "value": "enhances super-oxidizing function and phagocytic activity of neutrophilic granulocytes"},
      {"measurement": "side effects and allergic reactions", "setting": "[11]", "value": "does not cause side effects and allergic reactions"}
    ]}
  ]
}
